# Measured values reported in patent US4608378A, “Tetrahydroisoxazolo[4,5-c]pyridine derivatives useful in the treatment of malfunctions of the acetylcholine or muscarinic systems” (H. Lundbeck A/S, priority 1983, dated 1986).
# Where two headings read alike, the source gives them in different places.
# What was measured:
# [1] = system: isoniazide-induced seizures in mice; test: Isoniazide antagonism (convulsions); assay type: in vivo; conditions: Mus musculus, ip, read-out: Isoniazide antagonism ED50
# Description: Isoniazide 300 mg/kg s.c.
# Five mice are used for each dose level. Immediately after administration of test substance, isoniazide 300 mg/kg is injected s.c. This dose of isoniazide induces intermittent tonic clonic seizures within 60 minutes.
# The calculations are performed as an "on-line procedure" on the EDP-terminal. The results are recorded as % increase in time until convulsions occur and, ED50 values were determined.
# [2] = molecular target: muscarinic cholinergic receptors; test: 3H-PrBCM binding to muscarinic cholinergic receptors (brain); conditions: rat whole brain minus cerebellum; 1.5 nM 3H-PrBCM, 30° C.
# Description: ^3 --H-PrBCM binding to muscarinic cholinergic receptors
# Whole brain minus cerebellum of a rat was homogenized in 10 vol icecold 0.32M sucrose, pH 7.4. The homogenate was centrifuged at 600 g for 10 minutes and the supernatant at 25000 g for 55 min. at 4° C. with rehomogenization of the pellet in 0.32M sucrose. Incubation tubes in triplicate received at 30° C. test substance and tissue suspension. After 10 min. of incubation ligand (NEN,28-44 Ci/mmol) was added (final conc. of ^3 H-PrBCM: 1.5 nM). After 15 min. of incubation the reaction was stopped by addition of sodiumthiosulphate. The samples were filtered through Whatman GF/B filters (25 mm). The tubes and filters were rinsed twice with buffer. Non-specific binding was determined in the presence of 2.5 μM atropine. IC50 values were calculated by log probit analysis.
# [3] = system: muscarinic cholinergic receptors (guinea pig ileum); test: Muscarinic cholinergic agonism, guinea pig ileum; assay type: cell-based; conditions: Cavia porcellus; isolated guinea pig ileum, contraction, log-probit analysis; read-out: Musc. agonism ileum ED50
# Description: Muscarinic cholinergic agonism, guinea pig ileum
# Tyrode solution (NaCl 137 mM, KCl 2.7 mM, CaCl2 1.8 mM, MgCl2 1.1 mM, NaH2 PO4 0.32 mM, NaHCO3 4.8 mM, glucose 5.0 mM) foregassed with oxygen.
# A guinea pig is killed by a blow on its head and exsanguinated. The caudal part (about 15 cm) of ileum is removed and cleaned in Tyrode solution. Three ileum pieces (2.5-3.0 cm long) are cut and placed separately in 10 ml organ baths containing Tyrode solution. Each specimen is fixed to a pin in the bottom of the organ bath and connected through a spring to a Grass FT 03 transducer (isotonic measurement). The specimens are kept under a tone of 1.0 g.
# Concentration response curves to acetylcholine and test drugs are obtained by adding alternately acetylcholine and the test drugs in Tyrode solution to the both in 3-6 different concentrations. Each concentration is allowed to exert its maximal contracting effect before the tissue is washed and the next concentration is added.
# From the concentration effect curves the […] values for acetylcholine and the test drugs are calculated by log-probit analysis.
# pain threshold in mice = test: Mouse Grid Shock (pain threshold); assay type: in vivo; conditions: ip, read-out: Grid shock MED
# Description: The mouse grid consists of a perspex cage with wire grid bottom and a perspex lid, on which is placed a microphone sensitive to the frequency of mouse-squeak. A stimulator with motordriven potentiometer applies a sequence of square wave impulses of continuously increasing milliamperage to the grid. Frequence of impulses 20 cycles/sec., duration 5 msec. Milliamperage is recorded on a digital amperemter connected to the stimulator. Activation of the microphone by a mouse-squeak cuts off the current and the final milliamperage appear on the meter.
# Five mice are used for each dose level. Each mouse serves as its own control. Prior to the administration of test substance the animals are placed on the grid one at a time, and the pain threshold is determined by increasing the current intensity until the mouse squeaks. The pain threshold may be read on the milliampermeter. Fifteen minutes and 30 minutes after administration of test substance the mice are tested again and the pain thresholds recorded.
# Analgesic effect is present when the pain threshold is increased over the predosing value (control value). The results are stated as % increase in pain threshold calculated on the basis of the control value. The registration can also be done as an on-line procedure. In this case the punching instruction and punching cards will be provided automatically, and the results will be registered as a minimal effective dose (MED) determined after van der Waerden's X-test.
# [4] = system: heat stimulus reaction in rats; test: Hot Plate Test; assay type: in vivo; conditions: Rattus norvegicus, sc, 0.5 h, s.c., 55° C. hot plate, 30 minutes after injection
# Description: A group of 10 rats was used for each dose. Each rat was placed on a 55° C. hot plate and the reaction time in seconds was recorded from the moment the rat was placed on the plate until the rat reacted to the heat stimulus. The criteria for reaction were licking of paws, lifting of legs or jumping. The rat was removed from the plate immediately after the reaction. The rat was rejected if the reaction time was more than 10 seconds. After control testing the test substance was injected subcutaneously. The rat was tested on the hot plate 30 minutes after the injection and the reaction times were recorded. A cut-off time of 30 seconds was used. The results were expressed as mean percent effect (MPE), and ED50 values were calculated.
# [5] = peripheral administration; cited from earlier work
# [6] = peripheral administration; cited from earlier work; remark: listed apart in the source
# [7] = cited from earlier work
# AcCh receptors = conditions: background statement; cited from earlier work
# [8] = mice, test compound i.p., isoniazide 300 mg/kg s.c., time until convulsions
# [9] = mice, minimal effective dose, increase in pain threshold, test substance i.p. (may be tested orally)
Compound,"ED50 [1, 8] [µmol/kg]",IC50 [2] [µM],EC50 [3] [µM],minimal effective dose (pain threshold in mice; [9]) [µmol/kg],ED50 [4] [µmol/kg],penetration of the BBB [5],central effects [6],hydrolysis of ester group in vivo [7],AcCh agonist (AcCh receptors),ED50 [1] [µmol/kg],minimal effective dose (pain threshold in mice) [µmol/kg]
"COc1noc2c1CNCC2C (racemic) [O,7-Dimethyl-THPO, 3-Methoxy-7-methyl-4,5,6,7-tetrahydroisoxazolo[4,5-c]pyridine]",110,12,13,98,> 98,–,–,–,–,–,–
"COC(=O)C1=CCCN(C)C1 [Arecoline, methyl 1-methyl-1,2,5,6-tetrahydropyridine-3-carboxylate]",–,–,–,–,–,capable of penetrating the BBB after peripheral administration,very weak and frequently negligible central effects,very rapidly hydrolyzed in vivo,AcCh agonist,–,–
"COc1noc2c1CN(C)CC2 [O,5-Dimethyl-THPO, 3-Methoxy-5-methyl-4,5,6,7-tetrahydroixoxazolo[4,5-c]pyridine]",29,27,0.83,49,99,–,–,–,–,–,–
"C=CCOc1noc2c1CNCC2 [O--Allyl-THPO, 3-Allyloxy-4,5,6,7-tetrahydroisoxazolo[4,5-c]pyridine]",23,9.6,> 13,46,> 92,–,–,–,–,–,–
"c1ccc(COc2noc3c2CNCC3)cc1 [O--Benzyl-THPO, 3-Benzyloxy-4,5,6,7-tetrahydroisoxazolo[4,5-c]pyridine]",19,32,> 13,> 150,> 75,–,–,–,–,–,–
"CCCCOc1noc2c1CNCC2 [O--Butyl-THPO, 3-Butoxy-4,5,6,7-tetrahydroisoxazolo[4,5-c]pyridine]",> 170,15,> 13,> 170,> 86,–,–,–,–,–,–
"CC=CCOc1noc2c1CNCC2 [O--Crotyl-THPO, 3-(2-Butenyloxy)-4,5,6,7-tetrahydroisoxazolo[4,5-c]pyridine]",< 43,14,> 13,170,> 87,–,–,–,–,–,–
"CCOc1noc2c1CN(C)CC2 [O--Ethyl-5-Methyl-THPO, 3-Ethoxy-5-methyl-4,5,6,7-tetrahydroisoxazolo[4,5-c]pyridine]",41,2.4,1.6,> 91,> 91,–,–,–,–,–,–
"CCOc1noc2c1CNCC2 [O--Ethyl-THPO, 3-Ethoxy-4,5,6,7-tetrahydroisoxazolo[4,5-c]pyridine]",7.3,6,3.4,> 98,> 98,–,–,–,–,–,–
"CC(C)COc1noc2c1CNCC2 [O--Isobutyl-THPO, 3-Isobutoxy-4,5,6,7-tetrahydroisoxazolo[4,5-c]pyridine]",48,> 13,> 13,> 86,> 86,–,–,–,–,–,–
"CC(C)Oc1noc2c1CNCC2 [O--Isopropyl-THPO, 3-Isopropoxy-4,5,6,7-tetrahydroisoxazolo[4,5-c]pyridine]",19,3.5,> 13,> 46,> 91,–,–,–,–,–,–
"COc1noc2c1CN(Cc1ccccc1)CC2 [O--Methyl-5-Benzyl-THPO, 3-Methoxy-5-benzyl-4,5,6,7-tetrahydroisoxazolo[4,5-c]pyridine]",71,> 50,> 13,> 71,> 71,–,–,–,–,–,–
"CCN1CCc2onc(OC)c2C1 [O--Methyl-5-Ethyl-THPO, 3-Methoxy-5-ethyl-4,5,6,7-tetrahydroisoxazolo[4,5-c]pyridine]",84,15,> 13,84,–,–,–,–,–,–,–
"COc1noc2c1CNCC2 [O--Methyl-THPO, 3-Methoxy-4,5,6,7-tetrahydroisoxazolo[4,5-c]pyridine]",2.8,45,1.8,26,62,–,–,–,–,–,–
"C#CCOc1noc2c1CNCC2 [O--Propargyl-THPO, 3-(2-Propynyloxy)-4,5,6,7-tetrahydroisoxazolo[4,5-c]pyridine]",3,5.8,1.2,11,86,–,–,–,–,–,–
"CCCOc1noc2c1CNCC2 [O--Propyl-THPO, 3-Propoxy-4,5,6,7-tetrahydroisoxazolo[4,5-c]pyridine]",50,10,> 13,> 91,> 91,–,–,–,–,–,–
"Oc1noc2c1CNCC2 [THPO, 3-Hydroxy-4,5,6,7-tetrahydroisoxazolo[4,5-c]pyridinium bromide, reference compound]",–,–,> 13,–,> 90,–,–,–,–,> 1500,> 1500
